This assay concerns secretory IgA and serum IgG antibodies. Description: Oral immunization with OVA nanoparticles, ELISA of secretory IgA and serum IgG antibodies. It is filed as in vivo, male Sprague-Dawley adult rats. The following applies: immunizations at week 0 and week 4. As to the method:
Once the particles were generated and washed they were introduced orally into experimental animals (male Sprague-Dawley adult rats (200-250 g wt., 12-15 weeks old, Harlow). Ten animals were used for each group. About 1 mg of dry weight of nanoparticles in the reaction mixture has been administered orally into the stomach of each animal. The nonloaded (#8) nanoparticles were also administered to control animals, in addition to a soluble antigen (OVA)(#9). ELISA assay of secretory IgA and serum IgG antibodies was carried out as described [Challacombe, et al., Enhanced secretory IgA and systemic IgG antibody response after oral immunization with biodegradable microcapsules containing antigen. Immunology 76: 164-168 (1992)]. Primary and secondary immunization protocol was used, consisting of two immunizations at week 0 and at week 4. […] In another set of experiments nonloaded nanoparticles (no OVA) were separately tested in simulated gastric (pH 2) and intestinal (pH 8.3) solutions for their stability. […] Similar results in terms of antibodies and release characteristics were obtained for tetanus toxoid antigen.
Background: In an ELISA, binding on a coated surface is turned into a signal by an enzyme label.

On to “ovalbumin (egg albumin) [Sol OVA, soluble ovalbumin antigen from Sigma]”, for which the “Response to oral delivery of nanoparticulate OVA antigen, Mean” value worked out at 75.0 (Day 28, rats) and 550.0 (Day 56, rats).

The values are drawn from patent US6589563B2 (Nanodelivery, Inc., priority 1999, dated 2003).
